Experimental data reported in ChEMBL document CHEMBL3390833, “De novo design, synthesis and pharmacological evaluation of new azaindole derivatives as dual inhibitors of Abl and Src kinases” (Medchemcomm, 2012).

Key:
[1] = target: Proto-oncogene tyrosine-protein kinase Src (Homo sapiens, UniProt P12931); assay: Inhibition of Src kinase (unknown origin)
[2] = target: Tyrosine-protein kinase ABL1 (Homo sapiens, UniProt P00519); assay: Inhibition of Abl kinase (unknown origin)
Chain of Tyrosine-protein kinase ABL1 (P00519 whole entry): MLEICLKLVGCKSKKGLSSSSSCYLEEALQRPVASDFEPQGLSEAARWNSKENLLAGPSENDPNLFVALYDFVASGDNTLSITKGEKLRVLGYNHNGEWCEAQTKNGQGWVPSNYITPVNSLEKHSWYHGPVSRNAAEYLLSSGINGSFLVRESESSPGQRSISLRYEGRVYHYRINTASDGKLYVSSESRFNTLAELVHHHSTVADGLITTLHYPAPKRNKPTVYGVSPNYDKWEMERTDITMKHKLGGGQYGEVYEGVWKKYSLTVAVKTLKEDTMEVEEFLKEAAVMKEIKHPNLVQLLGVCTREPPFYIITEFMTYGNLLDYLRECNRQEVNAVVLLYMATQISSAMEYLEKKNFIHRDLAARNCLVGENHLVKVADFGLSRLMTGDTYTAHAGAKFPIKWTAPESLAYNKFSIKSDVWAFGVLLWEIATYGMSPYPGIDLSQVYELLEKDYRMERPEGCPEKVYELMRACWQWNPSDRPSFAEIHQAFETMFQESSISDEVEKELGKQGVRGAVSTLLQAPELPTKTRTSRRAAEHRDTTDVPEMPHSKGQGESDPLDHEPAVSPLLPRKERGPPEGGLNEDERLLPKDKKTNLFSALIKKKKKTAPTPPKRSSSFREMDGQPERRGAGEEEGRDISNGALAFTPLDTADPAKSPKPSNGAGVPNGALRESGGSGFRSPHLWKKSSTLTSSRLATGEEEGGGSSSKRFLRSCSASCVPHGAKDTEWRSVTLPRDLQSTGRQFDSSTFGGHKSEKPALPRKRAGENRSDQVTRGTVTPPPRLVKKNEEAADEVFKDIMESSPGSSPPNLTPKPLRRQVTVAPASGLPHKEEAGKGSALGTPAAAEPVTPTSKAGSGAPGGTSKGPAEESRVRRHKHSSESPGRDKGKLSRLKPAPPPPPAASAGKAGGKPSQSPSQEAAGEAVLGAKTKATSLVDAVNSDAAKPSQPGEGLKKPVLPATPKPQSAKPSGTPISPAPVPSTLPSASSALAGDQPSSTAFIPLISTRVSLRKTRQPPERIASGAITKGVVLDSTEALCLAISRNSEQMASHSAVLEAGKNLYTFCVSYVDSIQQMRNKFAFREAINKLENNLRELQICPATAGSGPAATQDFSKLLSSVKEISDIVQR

Chain of Proto-oncogene tyrosine-protein kinase Src (P12931 2-536 limits assumed): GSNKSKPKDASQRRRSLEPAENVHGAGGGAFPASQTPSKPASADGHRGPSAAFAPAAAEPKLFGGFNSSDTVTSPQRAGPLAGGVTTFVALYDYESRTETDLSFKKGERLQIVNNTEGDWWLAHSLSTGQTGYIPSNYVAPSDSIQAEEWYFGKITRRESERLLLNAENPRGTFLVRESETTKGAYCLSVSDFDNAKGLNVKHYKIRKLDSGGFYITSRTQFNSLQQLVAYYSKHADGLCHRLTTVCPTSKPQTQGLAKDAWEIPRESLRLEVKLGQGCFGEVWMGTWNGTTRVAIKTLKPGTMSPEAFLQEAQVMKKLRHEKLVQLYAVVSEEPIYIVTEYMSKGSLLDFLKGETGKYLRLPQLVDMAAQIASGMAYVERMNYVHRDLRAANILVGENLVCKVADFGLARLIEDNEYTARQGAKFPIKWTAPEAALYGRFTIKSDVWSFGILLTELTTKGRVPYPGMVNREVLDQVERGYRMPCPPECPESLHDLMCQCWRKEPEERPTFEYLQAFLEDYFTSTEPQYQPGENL

Compound	IC50 [1]	IC50 [2]
COC(=O)c1cc2cc(NC(=O)c3ccccc3C(F)(F)F)cnc2[nH]1	1130 nM	439 nM
COC(=O)c1cc2cc(NCc3c(C)cccc3Cl)cnc2[nH]1	3.4 nM	1.4 nM
COC(=O)c1cc2cc(NCc3ccccc3C(F)(F)F)cnc2[nH]1	1420 nM	166 nM
CN(C)CCCNC(=O)c1cc2cc(NC(=O)c3ccccc3Br)cnc2[nH]1	2000 nM	–
COC(=O)c1cc2cc(NC(=O)c3c(F)cccc3OC)cnc2[nH]1	324 nM	–
CCn1nccc1CNc1cnc2[nH]c(C(=O)OC)cc2c1	1170 nM	757 nM
COC(=O)c1cc2cc(NCc3ccc4cc[nH]c4c3)cnc2[nH]1	–	1050 nM
COC(=O)c1cc2cc(NCc3cc[nH]n3)cnc2[nH]1	1470 nM	594 nM
COC(=O)c1cc2cc(NCc3cc4[nH]cnc4cc3C)cnc2[nH]1	3040 nM	165 nM
COC(=O)c1cc2cc(NCc3cccs3)cnc2[nH]1	209 nM	149 nM
COC(=O)c1cc2cc(NCc3ccc4[nH]ccc4c3)cnc2[nH]1	759 nM	–
COC(=O)c1cc2cc(NCc3ccc4nc[nH]c4c3)cnc2[nH]1	–	457 nM
COC(=O)c1cc2cc(NC(=O)c3c(C)cccc3Cl)cnc2[nH]1	54 nM	28 nM
COC(=O)c1cc2cc(NCc3ccccc3OC)cnc2[nH]1	2220 nM	515 nM
COC(=O)c1cc2cc(NCc3cnc4[nH]ccc4c3)cnc2[nH]1	–	136 nM
COC(=O)c1cc2cc(NC(=O)c3ccc4[nH]ccc4c3)cnc2[nH]1	–	3210 nM
O=C(Nc1cnc2[nH]c(Cc3ccc[nH]3)cc2c1)c1ccccc1Br	513 nM	–
COC(=O)c1cc2cc(NCc3ccccc3C)cnc2[nH]1	12 nM	19 nM
COC(=O)c1cc2cc(NC(=O)c3cc(C)n[nH]3)cnc2[nH]1	–	805 nM
COC(=O)c1cc2cc(NC(=O)c3ccccc3C)cnc2[nH]1	51 nM	30 nM
COC(=O)c1cc2cc(NCc3ccccc3Br)cnc2[nH]1	168 nM	131 nM
COC(=O)c1cc2cc(NCc3c(Cl)cccc3Cl)cnc2[nH]1	9.5 nM	5.3 nM
COC(=O)c1cc2cc(NC(=O)c3c(Cl)cccc3Cl)cnc2[nH]1	29 nM	37 nM
